Assay type in all cases: in vivo
One assay deals with GPA (Myzus persicae). Nature of the assay: Bioassays on Green Peach Aphid (GPA), foliar spray on cabbage seedlings. To be noted: 72 h, corrected % control (Abbott), 200 ppm spray on cabbage seedlings, three days, read-out: GPA Rating. Here is the method: Bioassays on Green Peach Aphid (“GPA”) (Myzus persicae) Certain molecules disclosed in this document were tested against GPA using procedures described in the following example. In the reporting of the results, the “GPA Rating Table” was used (See Table Section). Cabbage seedlings grown in 3-inch pots, with 2-3 small (3-5 cm) true leaves, were used as test substrate. The seedlings were infested with 20-50 GPA (wingless adult and nymph stages) one day prior to chemical application. Four pots with individual seedlings were used for each treatment. Test compounds (2 mg) were dissolved in 2 mL of acetone/MeOH (1:1) solvent, forming stock solutions of 1000 ppm test compound. The stock solutions were diluted 5× with 0.025% Tween 20 in H2O to obtain the solution at 200 ppm test compound. A hand-held aspirator-type sprayer was used for spraying a solution to both sides of […] leaves until runoff. Reference plants (solvent check) were sprayed with the diluent only containing 20% by volume of acetone/MeOH (1:1) solvent. Treated plants were held in a holding room for three days at approximately 25° C. and ambient relative humidity (RH) prior to grading. Evaluation was conducted by counting the number of live aphids per plant under a microscope. Percent Control was measured by using Abbott's correction formula (W. S. Abbott, “A Method of Computing the Effectiveness of an Insecticide” J. Econ. Entomol. 18 (1925), pp. 265-267) as follows. Corrected % Control=100*(X−Y)/X • where • X=No. of live aphids on solvent check plants and • Y=No. of live aphids on treated plants The results are indicated in the table entitled “Table 3: Assay Results” (See Table Section).

The test system of another assay is BAW (Spodoptera exigua). As to the kind of experiment: Bioassays on Beet Armyworm (BAW), 128-well diet tray assay. To be noted: Spodoptera exigua, 168 h, read-out: BAW Rating. Put shortly:
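Diet surface dosed at 50 μg/cm^2 (acetone-water 90:10 vehicle), dried, then infested with second-instar larvae, one to five per well. After five to seven days at 25° C. under 14:10 light-dark, mortality per well was scored and averaged over eight wells.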

Another assay relates to CEW (Helicoverpa zea). Nature of the assay: Bioassays on Corn Earworm (CEW), 128-well diet tray assay. To be noted: Helicoverpa zea, 168 h; percent mortality, second instar larvae, 50 μg/cm^2 on artificial diet, five to seven days, 25° C.; read-out: CEW Rating. Put shortly: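 Percent larval mortality, averaged across eight wells, read after five to seven days at 25 °C under 14:10 light-dark. Each well held one to five second-instar larvae on diet surface-dosed at 50 μg/cm^2 (compound applied in acetone-water 90:10, then dried).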

With `O=C(NC1CSC1)c1ccc(/C=C/C(c2cc(Cl)c(Cl)c(Cl)c2)C(F)(F)F)cc1Br` (centres unmarked) [AC32], in the assay with GPA (Myzus persicae), the pest or weed control at 200 ppm was in the range of 0 to 80%. In addition, the pest or weed control at 50 µg/cm2 with BAW (Spodoptera exigua) and in the assay with CEW (Helicoverpa zea) was 50 to 100% throughout.
With `O=C(NC1CS(=O)(=O)C1)c1ccc(/C=C/C(c2cc(Cl)c(Cl)c(Cl)c2)C(F)(F)F)cc1Br` (centres unmarked) [AC33], in the assay with GPA (Myzus persicae), the pest or weed control at 200 ppm fell in the range of 0 to 80%. The pest or weed control at 50 µg/cm2 in the assay with BAW (Spodoptera exigua) and in the assay with CEW (Helicoverpa zea) was 50 to 100% in each case.
Take `O=C(NC1CSC1)c1ccc(/C=C/C(c2cc(Cl)c(Cl)c(Cl)c2)C(F)(F)F)cc1C(F)(F)F` (centres unmarked) [AC34]: in the assay with GPA (Myzus persicae), the pest or weed control at 200 ppm lay within 0 to 80%. Further, the pest or weed control at 50 µg/cm2 in the assay with BAW (Spodoptera exigua) and in the assay on CEW (Helicoverpa zea) was 50 to 100% each time.
With `O=C(NCc1ccc(Cl)nc1)c1ccc(/C=C/C(c2cc(Cl)c(Cl)c(Cl)c2)C(F)(F)F)cc1C(F)(F)F` (centres unmarked) [AC36], the pest or weed control at 200 ppm in the assay with GPA (Myzus persicae) lay within 0 to 80%. The pest or weed control at 50 µg/cm2 with BAW (Spodoptera exigua) and in the assay on CEW (Helicoverpa zea) was 50 to 100% each time.
On to `Cc1cc(/C=C/C(c2ccc(Cl)c(Cl)c2)C(F)(F)F)ccc1C(=O)NCc1ccc(Cl)nc1` (centres unmarked) [AC37], for which the pest or weed control at 200 ppm with GPA (Myzus persicae) fell in the range of 0 to 80%. Besides, the pest or weed control at 50 µg/cm2 with BAW (Spodoptera exigua) and in the assay with CEW (Helicoverpa zea) was 50 to 100% each time.
As for `Cc1cc(/C=C/C(c2cc(Cl)cc(Cl)c2)C(F)(F)F)ccc1C(=O)NCc1cnccn1` (centres unmarked) [AC43], the pest or weed control at 200 ppm in the assay on GPA (Myzus persicae) fell in the range of 0 to 80%. The pest or weed control at 50 µg/cm2 with BAW (Spodoptera exigua) and with CEW (Helicoverpa zea) was 50 to 100% in each case.
Turning to `Cc1cc(/C=C/C(c2cc(Cl)cc(Cl)c2)C(F)(F)F)ccc1C(=O)NCc1ccc(Cl)cc1` (centres unmarked) [AC48], the pest or weed control at 200 ppm in the assay with GPA (Myzus persicae) fell in the range of 0 to 80%. Moreover, the pest or weed control at 50 µg/cm2 in the assay on BAW (Spodoptera exigua) and in the assay with CEW (Helicoverpa zea) was 50 to 100% each time.
In the case of `O=C(NCc1ccc(Cl)nc1)c1ccc(/C=C/C(c2cc(Cl)cc(Cl)c2)C(F)(F)F)cc1F` (centres unmarked) [AC49], the pest or weed control at 200 ppm in the assay on GPA (Myzus persicae) lay within 0 to 80%. Besides, the pest or weed control at 50 µg/cm2 with BAW (Spodoptera exigua) and in the assay with CEW (Helicoverpa zea) was 50 to 100% in each case.
On to `Cc1cc(/C=C/C(c2cc(Cl)cc(Cl)c2)C(F)(F)F)ccc1C(=O)NCC(=O)N(C)CC(F)(F)F` (centres unmarked) [AC51], for which the pest or weed control at 200 ppm in the assay with GPA (Myzus persicae) is 0 to 80%. In addition, the pest or weed control at 50 µg/cm2 in the assay with BAW (Spodoptera exigua) and with CEW (Helicoverpa zea) was 50 to 100% each time.
As for `Cc1cc(/C=C/C(c2cc(Cl)c(F)c(Cl)c2)C(F)(F)F)ccc1C(=O)NC1CCOCC1` (centres unmarked) [AC52], the pest or weed control at 200 ppm in the assay on GPA (Myzus persicae) was 0 to 80%. Further, the pest or weed control at 50 µg/cm2 in the assay with BAW (Spodoptera exigua) and in the assay on CEW (Helicoverpa zea) was 50 to 100% in each case.
On to `Cc1cc(/C=C/C(c2cc(Cl)c(F)c(Cl)c2)C(F)(F)F)ccc1C(=O)NCc1ccc(Cl)cn1` (centres unmarked) [AC53], for which the pest or weed control at 200 ppm in the assay with GPA (Myzus persicae) was in the range of 0 to 80%. For the same molecule, the pest or weed control at 50 µg/cm2 in the assay with BAW (Spodoptera exigua) and in the assay with CEW (Helicoverpa zea) was 50 to 100% each time.
Turning to `Cc1cc(/C=C/C(c2cc(Cl)c(F)c(Cl)c2)C(F)(F)F)ccc1C(=O)NCc1ccnc(Cl)c1` (centres unmarked) [AC54], the pest or weed control at 200 ppm in the assay with GPA (Myzus persicae) lay in the range of 0 to 80%. Further, the pest or weed control at 50 µg/cm2 with BAW (Spodoptera exigua) and in the assay with CEW (Helicoverpa zea) was 50 to 100% each time.
Regarding `CC(C)(C)OC(=O)CNC(=O)c1ccc(/C=C/C(c2cc(Cl)c(Cl)c(Cl)c2)C(F)(F)F)cc1Br` (centres unmarked) [AC58], the pest or weed control at 200 ppm with GPA (Myzus persicae) lay within 0 to 80%. In addition, the pest or weed control at 50 µg/cm2 in the assay with BAW (Spodoptera exigua) and in the assay on CEW (Helicoverpa zea) was 50 to 100% each time.
In the case of `Cc1cc(/C=C/C(c2cc(Cl)cc(Cl)c2)C(F)(F)F)ccc1C(=O)Nc1ccc(Cl)nc1` (centres unmarked) [AC59], the pest or weed control at 200 ppm in the assay with GPA (Myzus persicae) lay in the range of 0 to 80%. For the same molecule, the pest or weed control at 50 µg/cm2 in the assay with BAW (Spodoptera exigua) and in the assay on CEW (Helicoverpa zea) was 50 to 100% throughout.
For `O=C(NC1CSC1)c1ccc(/C=C/C(c2cc(Cl)cc(Cl)c2)C(F)(F)F)cc1F` (centres unmarked) [AC61], in the assay with GPA (Myzus persicae), the pest or weed control at 200 ppm lay within 0 to 80%. For the same molecule, the pest or weed control at 50 µg/cm2 in the assay with BAW (Spodoptera exigua) and in the assay on CEW (Helicoverpa zea) was 50 to 100% throughout.
As for `O=C(NCc1ccc(Cl)nc1)c1ccc(/C=C/C(c2cc(Cl)c(F)c(Cl)c2)C(F)(F)F)cc1Br` (centres unmarked) [AC63], the pest or weed control at 200 ppm in the assay on GPA (Myzus persicae) was 0 to 80%. The pest or weed control at 50 µg/cm2 with BAW (Spodoptera exigua) and in the assay with CEW (Helicoverpa zea) was 50 to 100% in each case.
On to `Cc1cc(/C=C\C(c2cc(Cl)cc(Cl)c2)C(F)(F)F)ccc1C(=O)NCc1ccc(Cl)nc1` (centres unmarked) [AC94], for which, in the assay with GPA (Myzus persicae), the pest or weed control at 200 ppm lay in the range of 0 to 80%. Also, the pest or weed control at 50 µg/cm2 in the assay on CEW (Helicoverpa zea) is 0 to 50%.

These data come from patent publication US9210927B2, “Pesticidal compositions and processes related thereto” (Dow AgroSciences LLC, priority 2013, dated 2015).
